Test [1] has as its system A4 serous ovarian adenocarcinoma xenografts. Description: Flow cytometric resolution of residual tumour composition (proliferative hierarchy, ploidy, cell cycle; 18 fractions) after therapy. In kind it is in vivo, mice. The conditions noted are these: for drug sensitive tumour populations (cell targets): individual treatments, grid of FIG. 9. On the procedure:
FIG. 8 represents data discussed in Example 3. a. Schematic of paclitaxel administration regime; b. Frequency (±SEM) of tumor fractions based on proliferative hierarchy, ploidy and cell cycle analysis in control and paclitaxel treated where populations 1-18 are as depicted in FIG. 6b, inset indicates frequency of cycling CSCs, 18a-PKH^hi Eu G0, 18b-PKH^hi Eu G1,18c-PKH^hi Eu S, 18d-PKH^hi Eu G2/M, 18e-PKW^hi Aneu G0, 18f-PKH^hi Aneu G1, 18g-PKH^hiAneu S, 18h-PKW^hi Aneu G2/M;*−P<0.05; **−P<0.001; ***−P<0.0001.
FIG. 9 represents the efficacy of various drug regimes through resolution of residual tumor composition after therapy in comparison with a naïve (untreated) tumor for following drug regimes—Pac ST (paclitaxel short-term: 3 doses—48 h intervals—1 week recovery), Pac LT (paclitaxel long-term, 2 cycles of ST regime); Gem ST (gemcitabine short-term, 3 doses—36 h intervals—36 h recovery), Gem LT (gemcitabine long-term, 5 doses—36 h intervals—36 h recovery); 5AzadC (3 doses—48 h intervals—1 week recovery); mAbX (6 doses of an uncharacterised antibody developed in the Bapat lab—48 h intervals—48 h recovery); Gem+mAbX ST combination therapy (3 doses of each drug—48 h intervals—48 h recovery), Gem+mAbX LT combination therapy (2 cycles each comprising of 3 doses of each drug—48 h intervals—1 week recovery); triple drug combination of gemcitabine, mAbX and 5AzadC LT (6 therapeutic cycles, each comprising of 3 doses of each drug at 48 h intervals and 1 week recovery); populations 1-18 and 18a-18h are as defined in FIGS. 6b and 8 respectively.
Standard techniques are used in the process that is illustrative rather than limiting; other common methods are acceptable in the practice of this invention. Tumor tissues were rinsed several times with phosphate buffered saline (PBS) containing antibiotic and/or anti-fungal agents, finely minced and suspended in basal media supplemented with cell dissociation agent(s) with intermittent pipetting to loosen cell aggregates. Various combinations of dissociation agents can be used depending on the tumor type and appearance and including but not being limited to EDTA, EGTA, cocktails of enzymes including trypsin, dispases, collagenases, DNAse, and the like. On dispersion of tumor cell aggregates, enzymatic activity is usually terminated by addition of serum, cells pelleted by centrifugation and washed several times with basal medium and filtered through cell strainers to obtain a single cell suspension. Cell lines are harvested as per established guidelines to obtain a single cell suspension. […] Labeled cells are xenografted in immunocompromised mice, which could be either nude, SCID, Beige/SCID, NOD/SCID, Rag-/Rag-, humanised mice models, or any known experimental xenograft animal model. Control tumors were concurrently generated using unlabeled cells. Xenografts were harvested as per animal experimental protocols and digested to generate single cell suspension from which the different sub-populations were resolved through flow cytometry.
Basic cell parameters FSC and SSC were adjusted with ND filter 1.5/2 with appropriate FSC and SSC thresholds. Cell debris was eliminated based on low FSC—low SSC, doublets using Area—width parameters and RBCs based on nuclear Propidium iodide (PI) staining. PI excitation/emission maxima are at 535/617 nm (PE channel of blue laser used for analysis). Freshly labeled cells are used to set the gates for VMF^hi cells, while TDSCS from unlabeled tumors was used in order to set the gates for VMF^neg cells. Other fluorophores including Hoechst (UV laser), Pyronin Y (PE channel of blue laser), APC (red laser) and others can be incorporated into this scheme based on their compatibility and resolution capabilities of the flow equipment used for data acquisition and/or sorting as per experimental requirements.
G0/G1, S and G2/M (as illustrated in FIG. 3) provides information regarding the proliferative capability of a tumor. […]
Background: Flow cytometry measures light scatter and fluorescence of single cells or particles in a stream.

Test [2] shares this test system. Description: Tumour volume of A4 xenografts after drug regime. The test is classed as in vivo, mice. The conditions noted are these: paclitaxel i.p. 25 mg/kg body weight; at the end of the regime.
Setting [3] is: paclitaxel treated vs control, FIG. 8b.

In the case of `Nc1ccn([C@@H]2O[C@H](CO)[C@@H](O)C2(F)F)c(=O)n1` [gemcitabine], in test [1], the “drug sensitive tumour populations (cell targets)” value is on record as “effective in short-term sensitization of all populations within the PKH^neg fraction”.
For `CC(=O)O[C@H]1C(=O)[C@@]2(C)[C@H]([C@H](OC(=O)c3ccccc3)[C@]3(O)C[C@H](OC(=O)[C@H](O)[C@@H](NC(=O)c4ccccc4)c4ccccc4)C(C)=C1C3(C)C)[C@]1(OC(C)=O)CO[C@@H]1C[C@@H]2O` [paclitaxel], the “CSC re-entry into the cell cycle (cycling populations within PKH^hi fraction)” value in test [1] (after therapy vs naive tumor, FIG. 8b inset, FIG. 9) was “presence of cycling populations that have undergone less than 3-4 doublings within the PKH^hi fraction”. For the same molecule, the “frequency of aneuploid progenitor cells” value in test [1] (following paclitaxel treatment vs control) is recorded as “Increased frequency of aneuploid progenitor cells”. In test [1] (setting [3]), the “PKH^hi (CSC) fraction” value was “enhanced PKH^hi (CSC) fraction” and the “PKH^neg fraction” value is listed as “decreased PKH^neg fraction”. For the same molecule, the “reduction in tumor volumes” value in test [2] is given as 50%.
As to `Nc1ncn([C@H]2C[C@H](O)[C@@H](CO)O2)c(=O)n1` [5 AzadC, 5AzadC], the “drug sensitive tumour populations (cell targets)” value in test [1] was “effective against aneuploid fractions”.

(Values after patent US10429393B2, “Tumor deconstruction platform for the analysis of intra-tumor heterogeneity” (NATIONAL CENTRE FOR CELL SCIENCE, priority 2014, dated 2019).)
